Measured values as given in patent US5602106A, “16-membered macrolide derivatives” (priority 1993, dated 1997).
Values after ≈ are worked out from the molar mass of the structure shown. Like-named read-outs stand apart in the source and are kept apart here.

Legend:
Format in all cases: cell-based
[1] = system: B. catarrhalis W-0500; assay: MIC, agar plate dilution method; details: Moraxella catarrhalis
Description: (§1) The effect of the first aspect of the present invention resides in the creation of a novel and useful 16-membered macrolide derivative. Antimicrobial activities of the compounds of the present invention were determined by measuring minimum inhibitory concentration (MIC). Minimum inhibitory concentration was determined by the agar plate dilution method in the following manner.
(§2) Test strains were subjected to seed culture using Sensitivity test broth (STB, Nissui Pharmaceutical) except that the strains belonging to the genus Streptococcus, Branhamella and Haemophilus were cultured on blood agar plate. A 5 μl portion of cell suspension of the test strains having about 10^6 CFU/ml was inoculated into Sensitivity disk agar (SDA, Nissui Pharmaceutical) supplemented with 5% horse blood and incubated at 37° C. for 20 hours. Then, MIC was measured. […] Antimicrobial activities in vitro of the compounds (1) and (2) are shown in Table 1, and those of the compounds (3) and (4) in Table 3.

[2] = system: B. catarrhalis W-0506; assay: MIC, agar plate dilution method; details: Moraxella catarrhalis
Description: as §1, §2

[3] = system: E. coli NIHJ JC-2; assay: MIC, agar plate dilution method; details: Escherichia coli, NIHJJC2, 20 h, 37° C., SDA with 5% horse blood, read-out: Antimicrobial activity (MIC)
Description: as §1, §2

[4] = system: E. faecalis W-73; assay: MIC, agar plate dilution method; details: Enterococcus faecalis, W73, 20 h, read-out: Antimicrobial activity (MIC)
Description: as §1, §2

[5] = system: H. influenzae 9334; assay: MIC, agar plate dilution method; details: Haemophilus influenzae, 9334, 20 h, read-out: Antimicrobial activity (MIC), 37° C., 20 hours, SDA with 5% horse blood
Description: as §1, §2

[6] = system: H. influenzae Type b; assay: MIC, agar plate dilution method; details: Haemophilus influenzae, 20 h, read-out: Antimicrobial activity (MIC), 37° C., 20 hours, SDA with 5% horse blood
Description: as §1, §2

[7] = system: K. pneumoniae PCI602; assay: MIC, agar plate dilution method; details: Klebsiella pneumoniae, PCI602, 20 h, 37° C., SDA with 5% horse blood, read-out: Antimicrobial activity (MIC)
Description: as §1, §2

[8] = system: M. luteus ATCC9341; assay: MIC, agar plate dilution method; details: Micrococcus luteus, ATCC9341; 37° C., 20 hours, SDA with 5% horse blood; read-out: Antimicrobial activity (MIC)
Description: as §1, §2

[9] = system: S. aureus 209P JC-1; assay: MIC, agar plate dilution method; details: Staphylococcus aureus, 209P, 20 h
Description: as §1, §2

[10] = system: S. aureus M126; assay: MIC, agar plate dilution method; details: Staphylococcus aureus, 37° C., 20 hours, SDA with 5% horse blood, read-out: Antimicrobial activity (MIC)
Description: as §1, §2

[11] = system: S. aureus M133; assay: MIC, agar plate dilution method; details: Staphylococcus aureus, M133, 20 h
Description: as §1, §2

[12] = system: S. aureus MS15009/pMS98; assay: MIC, agar plate dilution method; details: Staphylococcus aureus, MS15009/PMS98, 20 h, read-out: Antimicrobial activity (MIC), 37° C., 20 hours, SDA with 5% horse blood
Description: as §1, §2

[13] = system: S. aureus MS15009/pMS99; assay: MIC, agar plate dilution method; details: Staphylococcus aureus, MS15009/PMS99, 20 h, read-out: Antimicrobial activity (MIC)
Description: as §1, §2

[14] = system: S. aureus MS15026; assay: MIC, agar plate dilution method; details: Staphylococcus aureus, 37° C., 20 hours, SDA with 5% horse blood, read-out: Antimicrobial activity (MIC)
Description: as §1, §2

[15] = system: S. aureus MS15027; assay: MIC, agar plate dilution method; details: Staphylococcus aureus, MS15027, 20 h, read-out: Antimicrobial activity (MIC), 37° C., 20 hours, SDA with 5% horse blood
Description: as §1, §2

[16] = system: S. epidermidis ATCC14990; assay: MIC, agar plate dilution method; details: Staphylococcus epidermidis
Description: as §1, §2

[17] = system: S. pneumoniae IP692; assay: MIC, agar plate dilution method; details: Streptococcus pneumoniae, IP692, 20 h
Description: as §1, §2

[18] = system: S. pneumoniae Type 1; assay: MIC, agar plate dilution method; details: Streptococcus pneumoniae, TYPE1; 37° C., 20 hours, SDA with 5% horse blood; read-out: Antimicrobial activity (MIC)
Description: as §1, §2

[19] = system: S. pyogenes Cook; assay: MIC, agar plate dilution method; details: Streptococcus pyogenes
Description: as §1, §2

[20] = system: test strains; assay: Antimicrobial activity in vitro, test strains overall; details: for antimicrobial activities compared with compound (58): vs compound (58); for antimicrobial activities in comparison with rokitamycin: vs rokitamycin; for improvement of MIC values over corresponding compounds with free 3"-hydroxyl (midecamycin M1, leucomycin V): most of the test strains
Description: as §1, §2

[21] = system: clinically important Gram-positive bacteria; assay: Antimicrobial activity / growth inhibition
Description: as §1, §2

[22] = W0500, 20 h, read-out: Antimicrobial activity (MIC), 37° C., 20 hours, SDA with 5% horse blood
[23] = W0506, 20 h, read-out: Antimicrobial activity (MIC), 37° C., 20 hours, SDA with 5% horse blood
[24] = 37° C., 20 hours, SDA with 5% horse blood, read-out: Antimicrobial activity (MIC)
[25] = read-out: Antimicrobial activity (MIC), 37° C., 20 hours, SDA with 5% horse blood
[26] = ATCC14990, 20 h, read-out: Antimicrobial activity (MIC), 37° C., 20 hours, SDA with 5% horse blood
[27] = W0500, 37° C., 20 hours, SDA with 5% horse blood, read-out: Antimicrobial activity (MIC)
[28] = W0506, 37° C., 20 hours, SDA with 5% horse blood, read-out: Antimicrobial activity (MIC)

Row | SMILES | MIC [1, 22] [µg/mL] | MIC [2, 23] [µg/mL] | MIC [3] [µg/mL] | MIC [4] [µg/mL] | MIC [5] [µg/mL] | MIC [6] [µg/mL] | MIC [7] [µg/mL] | MIC [8] [µg/mL] | MIC [9, 24] [µg/mL] | MIC [10] [µg/mL] | MIC [11, 25] [µg/mL] | MIC [12] [µg/mL] | MIC [13] [µg/mL] | MIC [14] [µg/mL] | MIC [15] [µg/mL] | MIC [16, 26] [µg/mL] | MIC [17, 24] [µg/mL] | MIC [18] [µg/mL] | MIC [19, 24] [µg/mL] | antimicrobial activities (in words) [21] | other results
1 | CO[C@@H]1[C@@H](O[C@@H]2O[C@H](C)[C@@H](O[C@H]3C[C@@](C)(OC)[C@@H](OC(=O)C(C)C)[C@H](C)O3)[C@H](N(C)C)[C@H]2O)[C@@H](CC=O)C[C@@H](C)[C@@H](O)/C=C/C=C/C[C@@H](C)OC(=O)C[C@H]1O [(53), 4"-O-isobutyryl-3"-Omethylleucomycin V] | 0.2 (≈ 0.254 µM) | 0.2 (≈ 0.254 µM) | > 100 | 0.78 (≈ 0.992 µM) | 0.39 (≈ 0.496 µM) | 6.25 (≈ 7.95 µM) | > 100 | < 0.025 | 0.05 (≈ 0.0636 µM) | > 100 | 0.2 (≈ 0.254 µM) | 0.2 (≈ 0.254 µM) | > 100 | > 100 | 0.2 (≈ 0.254 µM) | 0.2 (≈ 0.254 µM) | < 0.025 | < 0.025 | < 0.025 | markedly strong microbial activities | antimicrobial activities compared with compound (58) [20]: slightly superior antimicrobial activities; antimicrobial activities in comparison with rokitamycin [20]: markedly excellent antimicrobial activities
2 | CO[C@@H]1[C@@H](O[C@@H]2O[C@H](C)[C@@H](O[C@H]3C[C@@](C)(OC)[C@@H](OC(=O)CC(C)C)[C@H](C)O3)[C@H](N(C)C)[C@H]2O)[C@@H](CC=O)C[C@@H](C)[C@@H](O)/C=C/C=C/C[C@@H](C)OC(=O)C[C@H]1O [(58), 3"-O-methylleucomycin A1] | 0.2 (≈ 0.25 µM) | 0.2 (≈ 0.25 µM) | > 100 | 0.78 (≈ 0.975 µM) | 0.78 (≈ 0.975 µM) | 6.25 (≈ 7.81 µM) | > 100 | < 0.025 | 0.05 (≈ 0.0625 µM) | > 100 | 0.39 (≈ 0.488 µM) | 0.2 (≈ 0.25 µM) | > 100 | > 100 | 0.2 (≈ 0.25 µM) | 0.2 (≈ 0.25 µM) | 0.05 (≈ 0.0625 µM) | 0.05 (≈ 0.0625 µM) | 0.05 (≈ 0.0625 µM) | markedly strong microbial activities | –
3 | CO[C@@H]1[C@@H](O[C@@H]2O[C@H](C)[C@@H](O[C@H]3C[C@@](C)(OC)[C@@H](O)[C@H](C)O3)[C@H](N(C)C)[C@H]2O)[C@@H](CC=O)C[C@@H](C)[C@@H](O)/C=C/C=C/C[C@@H](C)OC(=O)C[C@H]1O [(4), 3"-O-methylleucomycin V] | – | – | > 100 | 0.78 (≈ 1.09 µM) | – | 12.5 (≈ 17.5 µM) | > 100 | 0.05 (≈ 0.0698 µM) | – | > 100 | 0.78 (≈ 1.09 µM) | 0.39 (≈ 0.545 µM) | > 100 | > 100 | 0.78 (≈ 1.09 µM) | 0.78 (≈ 1.09 µM) | – | 0.05 (≈ 0.0698 µM) | – | strong antimicrobial activities | MIC [1, 27]: 1.56 µg/mL (≈ 2.18 µM); MIC [2, 28]: 1.56 µg/mL (≈ 2.18 µM); MIC [9, 25]: 0.39 µg/mL (≈ 0.545 µM); MIC [17, 25]: 0.1 µg/mL (≈ 0.14 µM); MIC ([19]; 20 h, read-out: Antimicrobial activity (MIC), 37° C., 20 hours, SDA with 5% horse blood): 0.1 µg/mL (≈ 0.14 µM); improvement of MIC values over corresponding compounds with free 3"-hydroxyl (midecamycin M1, leucomycin V) [20]: improved two to three times
4 | CCC(=O)O[C@@H]1CC(=O)O[C@H](C)C/C=C/C=C/[C@H](O)[C@H](C)C[C@H](CC=O)[C@H](O[C@@H]2O[C@H](C)[C@@H](O[C@H]3C[C@@](C)(OC)[C@@H](O)[C@H](C)O3)[C@H](N(C)C)[C@H]2O)[C@H]1OC [(3), 3"-O-methylmidecamycin M1] | – | – | > 100 | 0.78 (≈ 1.01 µM) | – | 50 (≈ 64.8 µM) | > 100 | 0.1 (≈ 0.13 µM) | – | > 100 | – | 0.78 (≈ 1.01 µM) | > 100 | > 100 | 0.78 (≈ 1.01 µM) | – | 0.1 (≈ 0.13 µM) | 0.1 (≈ 0.13 µM) | 0.2 (≈ 0.259 µM) | strong antimicrobial activities | MIC [1, 27]: 3.13 µg/mL (≈ 4.05 µM); MIC [2, 28]: 3.13 µg/mL (≈ 4.05 µM); MIC [9, 25]: 0.39 µg/mL (≈ 0.505 µM); MIC [11, 24]: 1.56 µg/mL (≈ 2.02 µM); MIC ([16]; ATCC14990, 37° C., 20 hours, SDA with 5% horse blood, read-out: Antimicrobial activity (MIC)): 1.56 µg/mL (≈ 2.02 µM); improvement of MIC values over corresponding compounds with free 3"-hydroxyl (midecamycin M1, leucomycin V) [20]: improved two to three times; antimicrobial activities in comparison with midecamycin M1 ([20]; presumed in vivo metabolite of compound (5)): superior antimicrobial activities
5 | CCCCC(=O)O[C@H]1[C@H](C)O[C@@H](O[C@H]2[C@H](N(C)C)[C@@H](O)[C@H](O[C@H]3[C@@H](CC=O)C[C@@H](C)[C@@H](O)/C=C/C=C/C[C@@H](C)OC(=O)C[C@@H](O)[C@@H]3OC)O[C@@H]2C)C[C@@]1(C)OC [(48), 3"-O-methyl-4"-O-n-valerylleucomycin V] | 0.1 (≈ 0.125 µM) | 0.2 (≈ 0.25 µM) | > 100 | 0.78 (≈ 0.975 µM) | 0.78 (≈ 0.975 µM) | 6.25 (≈ 7.81 µM) | > 100 | < 0.025 | 0.05 (≈ 0.0625 µM) | > 100 | 0.2 (≈ 0.25 µM) | 0.2 (≈ 0.25 µM) | > 100 | > 100 | 0.2 (≈ 0.25 µM) | 0.2 (≈ 0.25 µM) | < 0.025 | < 0.025 | < 0.025 | markedly strong microbial activities | antimicrobial activities compared with compound (58) [20]: slightly superior antimicrobial activities; antimicrobial activities in comparison with rokitamycin [20]: markedly excellent antimicrobial activities
